Results reported in ChEMBL document CHEMBL1201862, “PubChem BioAssay data set” (2004).
Active and inactive are the calls of the source.

Columns and labels:
[1] = target: T1, Neuropeptide Y receptor type 1 (Homo sapiens, UniProt P25929); type: functional;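 for IC50: HEK293 cells with a CNG channel challenged with NPY then isoproterenol; potency as antagonist that reverses NPY suppression of cAMP signal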
[2] = target: T2, Neuropeptide Y receptor type 2 (Homo sapiens, UniProt P49146); type: functional, cell-based;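 for IC50: HEK293 cells expressing the receptor and a CNG channel; stimulus was NPY near EC95 followed by isoproterenol to raise cAMP; antagonist potency measured as restoring cAMP signal that NPY suppresses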
T2 sequence (P49146 whole entry): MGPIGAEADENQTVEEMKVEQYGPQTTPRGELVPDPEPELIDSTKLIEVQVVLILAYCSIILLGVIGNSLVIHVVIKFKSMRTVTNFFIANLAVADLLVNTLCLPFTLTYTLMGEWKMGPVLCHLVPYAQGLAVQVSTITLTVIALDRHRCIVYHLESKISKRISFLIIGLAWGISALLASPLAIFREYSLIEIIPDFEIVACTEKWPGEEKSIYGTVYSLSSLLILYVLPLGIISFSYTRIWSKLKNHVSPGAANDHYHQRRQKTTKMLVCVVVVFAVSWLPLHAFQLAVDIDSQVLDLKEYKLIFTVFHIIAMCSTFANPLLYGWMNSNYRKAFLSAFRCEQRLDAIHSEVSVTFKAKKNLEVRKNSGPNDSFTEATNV

[3] = growth induction of Burl-1 ts yeast mutant, dose response, counter-screen for SUMOylation pathway inhibitor project, whole organism, S. cerevisiae, luminescence (AID 463199); type: functional
[4] = tested on: H9c2; assay: cells; type: functional, cell-based; conditions: Rattus norvegicus, H9c2, Myocardium;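 note: confirmatory concentration-response retest of ultra-high-throughput screening hits for modulation of myocardial damage; cell death induced by hydrogen peroxide oxidative stress; compound pretreatment for 60 min then peroxide exposure for 2 h; potency is for protecting the cells against peroxide damage rather than for killing them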
[5] = tested on: HEK293; assay: Fluorescence-based counterscreen for potentiators or agonists of NPY-Y2: cell-based high-throughput dose response assay to identify inhibitors of cyclic nucleotide gated ion channel (CNGC) activity. In this assay, the parental HEK293 cell line transfected with a cyclic-nucleotide gated ion channel (CNGC)-based cAMP sensor is used to measure inhibition of isoproterenol-induced CNGC activity by test compound.; type: functional; conditions: Homo sapiens;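 note: stimulus is 1 µM isoproterenol at EC100 plus PDE inhibitor Ro 20-1724 at 25 µM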
[6] = target: T2, Neuropeptide Y receptor type 2; assay: Fluorescence-based cell-based high-throughput dose response assay for agonists of NPY-Y2. [Related pubchem assays: 1703 (Screening assay (CNGC inhibitors).), 1359 (Screening assay (NPY-Y2 potentiators or agonists).), 1304 (Screening assay (NPY-Y1 potentiators or agonists).), 1710 (Screening assay (NPY-Y2 agonists).), 1791 (Summary AID.)]; type: functional
[7] = target: Galanin receptor type 2 (Homo sapiens, UniProt O43603); assay: Dose Response cell-based high-throughput screening assay to identify antagonists of galanin receptor 2 (GALR2). [Related pubchem assays: 828, 866 ]; type: functional
Chain of Galanin receptor type 2 (O43603 whole entry): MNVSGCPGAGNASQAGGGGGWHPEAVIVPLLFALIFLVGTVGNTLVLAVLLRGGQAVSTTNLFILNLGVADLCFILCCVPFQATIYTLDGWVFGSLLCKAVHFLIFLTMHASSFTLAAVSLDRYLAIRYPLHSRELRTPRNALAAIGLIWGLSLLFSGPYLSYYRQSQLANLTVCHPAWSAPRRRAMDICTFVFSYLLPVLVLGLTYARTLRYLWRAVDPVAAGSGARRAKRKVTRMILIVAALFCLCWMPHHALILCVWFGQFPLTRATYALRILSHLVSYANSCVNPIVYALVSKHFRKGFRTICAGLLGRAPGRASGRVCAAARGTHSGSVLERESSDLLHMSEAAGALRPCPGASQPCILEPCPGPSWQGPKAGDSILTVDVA

[8] = target: T1, Neuropeptide Y receptor type 1; assay: Fluorescence-based counterscreen for agonists of NPY-Y2: cell-based high-throughput dose response assay for agonists of NPY-Y1.; type: functional
[9] = tested on: INS1; assay: beta cell apoptosis inhibitors, cytokine rescue, dose response, luminescence, retest (AID 449756); type: functional, cell-based; conditions: Rattus norvegicus;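 note: cell death triggered by IL-1 beta plus TNF-alpha plus IFN-gamma mixture; protective hits raise ATP signal compared with cytokine alone wells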
[10] = miR-122 activators in hepatoma reporter cells, dose response, cell-based, Huh7 psiCHECK-miR122, Renilla luciferase, cherry-picked (AID 651956); type: functional;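 note: huh7 hepatoma cells stably carrying a psiCHECK-2 miR-122 sensor plasmid; renilla luciferase signal reporting endogenous miR-122 activity after 48 h compound exposure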
[11] = off-target signal loss in HeLa-CEM21 co-culture – HeLa F-luc CTL cells, cherry-picked, counter-screen for HIV-1 Env fusion inhibitor project, dose response (AID 652040); type: functional, cell-based;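 note: potency for signal decrease marking cytotoxic or nonspecific inhibition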
[12] = inhibitors of clade B AD8 Env fusion, dose response, cell-based, cherry-pick (AID 652062); type: functional;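 note: luciferase signal from cell-cell fusion driven by HIV-1 clade B AD8 Env; potency is for inhibitors of fusion seen as a drop in luminescence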
[13] = target: T3, COUP transcription factor 2 (Homo sapiens, UniProt P24468); assay: Luminescence-based cell-based high throughput dose response assay to identify inhibitors of COUP-TFII (NR2F2).; type: functional;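 note: HEK293 cells transiently cotransfected with COUP-TFII expression vector and reporter; luciferase reporter luminescence driven by COUP-TFII from the pX2-168 reporter plasmid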
T3 sequence (P24468 whole entry): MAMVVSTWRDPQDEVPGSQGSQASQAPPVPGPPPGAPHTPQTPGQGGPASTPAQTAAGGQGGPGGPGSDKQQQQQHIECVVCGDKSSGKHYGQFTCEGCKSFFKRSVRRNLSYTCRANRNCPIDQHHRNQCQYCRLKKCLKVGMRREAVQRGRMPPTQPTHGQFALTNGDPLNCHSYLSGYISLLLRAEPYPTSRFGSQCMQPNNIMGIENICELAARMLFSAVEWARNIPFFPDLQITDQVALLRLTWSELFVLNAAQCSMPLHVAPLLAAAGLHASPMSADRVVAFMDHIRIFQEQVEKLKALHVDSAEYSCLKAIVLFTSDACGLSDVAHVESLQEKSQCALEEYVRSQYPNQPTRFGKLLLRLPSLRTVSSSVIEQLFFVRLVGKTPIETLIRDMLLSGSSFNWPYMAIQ

[14] = HEK293T cytotoxicity, dose response, cytotoxicity control for miR-122 modulator project, cell-based, inhibitor set, cherry-pick, set 2 (AID 720697); type: functional
[15] = HEK293T cytotoxicity, dose response, cytotoxicity control for miR-122 modulator project, cell-based, activator set, cherry-pick (AID 720690); type: functional;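 note: HEK293T human cells scored for general mammalian cytotoxicity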
[16] = target: T4, Estrogen receptor (Homo sapiens, UniProt P03372); assay: potentiators of ERα–SRC-1 coactivator binding, dose response, biochemical, TR-FRET, ERα LBD (AID 737)
T4 sequence (P03372 whole entry): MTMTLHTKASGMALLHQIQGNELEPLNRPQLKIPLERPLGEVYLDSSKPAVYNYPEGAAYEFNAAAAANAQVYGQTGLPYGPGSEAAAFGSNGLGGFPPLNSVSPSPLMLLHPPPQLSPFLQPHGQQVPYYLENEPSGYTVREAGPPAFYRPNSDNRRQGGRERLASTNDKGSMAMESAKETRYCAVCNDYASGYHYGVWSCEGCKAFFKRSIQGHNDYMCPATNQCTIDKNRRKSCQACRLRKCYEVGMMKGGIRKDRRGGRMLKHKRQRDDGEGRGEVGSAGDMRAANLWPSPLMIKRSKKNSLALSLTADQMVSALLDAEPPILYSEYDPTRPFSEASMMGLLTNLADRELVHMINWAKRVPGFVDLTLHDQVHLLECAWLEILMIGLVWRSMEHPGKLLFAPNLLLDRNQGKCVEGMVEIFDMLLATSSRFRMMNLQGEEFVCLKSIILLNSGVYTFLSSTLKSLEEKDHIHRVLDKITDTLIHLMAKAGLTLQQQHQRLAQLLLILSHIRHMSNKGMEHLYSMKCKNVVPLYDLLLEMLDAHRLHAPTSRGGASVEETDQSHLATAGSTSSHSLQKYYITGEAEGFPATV

T1 sequence (P25929 whole entry): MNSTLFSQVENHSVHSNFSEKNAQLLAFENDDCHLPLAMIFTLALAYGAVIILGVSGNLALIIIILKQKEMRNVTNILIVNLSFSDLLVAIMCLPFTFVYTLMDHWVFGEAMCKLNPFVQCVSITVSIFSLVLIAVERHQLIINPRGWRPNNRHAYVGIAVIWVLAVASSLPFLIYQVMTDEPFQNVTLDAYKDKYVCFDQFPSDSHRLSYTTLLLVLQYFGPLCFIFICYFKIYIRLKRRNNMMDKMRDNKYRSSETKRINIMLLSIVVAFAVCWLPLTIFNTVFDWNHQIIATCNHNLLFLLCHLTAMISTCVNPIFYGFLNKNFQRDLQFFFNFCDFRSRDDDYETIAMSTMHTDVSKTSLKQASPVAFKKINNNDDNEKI

O=C(Nc1cccc(/N=C/c2cc(Br)cc(Br)c2O)c1)c1ccco1
IC50 [1]: > 35 µM (not active) | IC50 [2]: > 35 µM (not active) | AC50 [3]: 57.9 µM (active) | IC50 [4]: 10.8 µM (active)

CC(=O)c1c(C)[nH]c(C(=O)OCCCCN2C(=O)c3ccccc3C2=O)c1C
EC50 [5]: > 35.4 µM (not active) | EC50 [6]: > 35.4 µM (not active) | IC50 [7]: > 42 µM (not active) | EC50 [8]: > 35.4 µM (not active) | AC50 [9]: 6.57 µM (active) | AC50 [10]: 38.4 µM (active) | AC50 [11]: > 70 µM (inactive) | AC50 [12]: 6.13 µM (active) | IC50 [13]: 7.55 µM (active) | AC50 [14]: 7.33 µM (active) | AC50 [15]: 12.5 µM (active)

Cc1cc(C(=O)CSc2nnc(-c3ccccc3F)o2)c(C)n1Cc1cccs1
EC50 [16]: 6.97 µM (active)
